Data taken from patent US11839639B2, “Inhibition of androgen receptor by extracts of medicinal herbs and compositions thereof” (YALE UNIVERSITY, priority 2017, dated 2023).
Entries after “also recorded” stand apart in the source; their conditions may differ.

Key:
[1] = target: androgen receptor (Homo sapiens, UniProt P10275); assay: PSA promoter luciferase reporter assay, 22RV1 AR-luciferase reporter cells; assay type: cell-based; conditions: for anti-androgen receptor (AR) activity, luciferase reporter assay: 22RV1 AR-luciferase reporter cells, with DHT; for anti-androgen receptor activity, luciferase reporter assay: in present of DHT 10 nM
Description: 22RV1 prostate cancer cells were used in the screening study. 22RV1 cell lines were stably transfected with PSA promoter-PGL4.2 luciferase reporter. 25 nM) H T was used to induce androgen receptor for 24 h.
22RV1 androgen reporter cells were treated with herbal extracts at 30, 100, 300, and 1000 μg/ml for 24 h in a 37° C.-CO2 incubator with or without 25 nM DHT which was used androgen receptor activity. Cells were lysed using luciferase lysis buffer after which luciferase buffer with luciferin was added to generate luminescence. Luminescence was recorded using a luminescence microplate reader.

[2] = tested on: 22RV1 xenograft; assay: 22RV1 xenograft tumor growth; assay type: in vivo, mouse; conditions: gallic acid 23 mg/kg BID orally, nude mice
Description: E5 may have higher selectively to inhibit prostate cancer with AR protein in vivo. I2 may have higher selectively to inhibit prostate cancer without AR protein expression in vivo.

[3] = tested on: DU145 xenograft; assay: DU145 xenograft tumor growth; assay type: in vivo, mouse; conditions: nude mice
Description: (§1) In another animal experiment, we compared the anti-prostate tumor growth effect of S6, F5, and PE1 (each 300 mg/kg bid) to enzalutamide (10 mg/kg qd) (targeting on AR) on LNCaP (androgen dependent) xenograft tumor and Du145 xenograft tumor in nude mice for two weeks.

[4] = tested on: LNCaP (androgen dependent) xenograft tumor; assay: LNCaP xenograft tumor growth; assay type: in vivo, nude mice; conditions: S6, F5, PE1 each 300 mg/kg bid; enzalutamide 10 mg/kg qd; two weeks
Description: as §1

androgen receptor, sequence (P10275 whole entry): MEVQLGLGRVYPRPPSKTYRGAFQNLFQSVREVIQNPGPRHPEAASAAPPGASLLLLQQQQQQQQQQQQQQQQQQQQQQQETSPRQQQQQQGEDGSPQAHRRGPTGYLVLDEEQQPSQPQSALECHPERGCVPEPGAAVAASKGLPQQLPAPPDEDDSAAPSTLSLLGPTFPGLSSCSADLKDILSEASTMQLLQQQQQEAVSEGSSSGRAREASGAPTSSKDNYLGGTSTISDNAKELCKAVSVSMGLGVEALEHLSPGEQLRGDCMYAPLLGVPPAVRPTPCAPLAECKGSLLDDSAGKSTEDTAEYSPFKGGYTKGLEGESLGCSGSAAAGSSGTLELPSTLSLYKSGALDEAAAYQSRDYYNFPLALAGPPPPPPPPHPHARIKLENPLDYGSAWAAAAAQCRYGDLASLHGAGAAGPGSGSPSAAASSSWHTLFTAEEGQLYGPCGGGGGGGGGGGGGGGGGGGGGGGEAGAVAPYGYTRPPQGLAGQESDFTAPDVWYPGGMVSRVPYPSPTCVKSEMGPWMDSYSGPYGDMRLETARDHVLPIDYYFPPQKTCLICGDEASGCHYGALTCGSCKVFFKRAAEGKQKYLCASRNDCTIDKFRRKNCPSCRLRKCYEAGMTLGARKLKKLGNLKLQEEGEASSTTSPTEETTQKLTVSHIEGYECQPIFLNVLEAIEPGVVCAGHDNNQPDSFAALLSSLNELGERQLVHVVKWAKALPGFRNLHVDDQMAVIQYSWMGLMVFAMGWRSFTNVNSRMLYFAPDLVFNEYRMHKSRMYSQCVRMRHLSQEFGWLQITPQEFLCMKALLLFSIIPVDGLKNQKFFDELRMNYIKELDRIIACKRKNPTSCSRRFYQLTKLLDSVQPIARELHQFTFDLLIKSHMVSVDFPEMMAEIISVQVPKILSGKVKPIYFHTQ

SMILES | anti-androgen receptor (AR) activity, luciferase reporter assay [1] | anti-androgen receptor activity, luciferase reporter assay [1] | other results
Oc1cc(O)c2c(c1)O[C@H](c1cc(O)c(O)c(O)c1)[C@@H](O)C2 [gallocatechin] | showed inhibition; also recorded: different potency on inhibiting AR | found to have anti-androgen receptor activity | 
O=C(O)c1cc(O)c(O)c(O)c1 [gallic acid] |  |  | in vivo anti-tumor activity, 22RV1 tumor [2]: exhibit in vivo anti-tumor activity; in vivo anti-tumor activity, Du145 tumor ([3]; gallic acid 23 mg/kg BID orally): exhibit in vivo anti-tumor activity
CNC(=O)c1ccc(N2C(=S)N(c3ccc(C#N)c(C(F)(F)F)c3)C(=O)C2(C)C)cc1F [enzalutamide, reference compound] |  |  | growth of LNCaP xenograft tumor [4]: effectively inhibited; growth of Du145 xenograft tumor ([3]; S6, F5, PE1 each 300 mg/kg bid, enzalutamide 10 mg/kg qd, two weeks): not Du145 tumors
O=C(O)c1cc(O)c2c(c1)[C@H]([C@@H]1c3cc(CO)cc(O)c3C(=O)c3c(O[C@@H]4O[C@H](CO)[C@@H](O)[C@H](O)[C@H]4O)cccc31)c1cccc(O[C@@H]3O[C@H](CO)[C@@H](O)[C@H](O)[C@H]3O)c1C2=O [sennoside D] | no |  | 
O=C(O)c1cc(O)c2c(c1)[C@H]([C@H]1c3cc(CO)cc(O)c3C(=O)c3c(O[C@@H]4O[C@H](CO)[C@@H](O)[C@H](O)[C@H]4O)cccc31)c1cccc(O[C@@H]3O[C@H](CO)[C@@H](O)[C@H](O)[C@H]3O)c1C2=O [sennoside C] | no |  | 
Oc1cc(O)c2c(c1)O[C@H](c1cc(O)c(O)c(O)c1)[C@H](O)C2 [Epigallocatechin] | showed inhibition; also recorded: different potency on inhibiting AR | highest potency against AR | 
